In brackets after ≈: the same amount, converted by molar mass. Some results are limits rather than exact numbers.

Results on 77 compounds are retold here after PubChem BioAssay AID1996.

The conditions of the series: buffer; pH 7.4; 200.0 µM.
Consider `Cc1ccc(S(=O)(=O)N2CCc3ccccc3C2)cc1C`, for which the solubility (kinetic) was less than 0.6 µg/mL. The figure for `CCN1C(=O)NC(c2ccccc2)(c2ccccc2)C1=O` is less than 0.3 µg/mL; for `Cc1cccc2nc3c(nc12)-c1ccccc1C3=O` it is 0.5 µg/mL (≈ 2.03 µM); for `CC1=C(C(N)=O)C(c2cccs2)NC(=S)N1` (configuration not stated) it is 34.7 µg/mL (≈ 137 µM). The figure for `Cc1nc2ccccc2cc1C(=O)Nc1ccccc1Cl` is 6.7 µg/mL (≈ 22.6 µM); for `O=C(CCCCN1CCCCC1)c1ccccc1` it is 31.8 µg/mL (≈ 130 µM); for `N#Cc1c(N2CCSCC2)nsc1-c1ccccc1Cl` it is 3.4 µg/mL (≈ 10.6 µM). The figure for `CC(=O)c1ccc(NC2=NCCCS2)cc1` is greater than 35.1 µg/mL; for `CC1=C([N+](=O)[O-])C(c2ccccc2Cl)NC(=O)N1C` (configuration not stated) it is greater than 42.3 µg/mL. The compound `CC1CC1C(=O)OCC(=O)Nc1cc(S(=O)(=O)N2CCCCC2)ccc1Cl` (configuration not stated) displayed a kinetic solubility of 31.1 µg/mL (≈ 75 µM). The same measure for `CCN1C(=O)c2cccc3c(S(=O)(=O)N(C(C)=O)c4ccc(OC(C)=O)cc4)ccc1c23`: 4.3 µg/mL (≈ 9.5 µM); for `COc1ccc(Nc2nc(OC)nc(OC)n2)cc1`: greater than 39.3 µg/mL; for `O=C(NCC1CCCO1)c1cnn2c(C(F)F)cc(C3CC3)nc12` (configuration not stated): greater than 50.5 µg/mL.

Turning to `N#Cc1ccc(C(=O)N2CCN(c3ncccn3)CC2)cc1`, the solubility (kinetic) was greater than 44 µg/mL. `O=C(CCCl)N1CCCC2(CCCCC2)C1` registered a kinetic solubility of 30.1 µg/mL (≈ 123 µM). The same measure for `CCCC(=O)N1CCCC(c2nc(-c3cccc(OC)c3)no2)C1` (configuration not stated): greater than 49.4 µg/mL. For the compound `CCC(C)NC(=O)CN1C(=O)c2cccc3cccc1c23` (configuration not stated), the kinetic solubility is 6.3 µg/mL (≈ 22.3 µM). The figure for `O=C(CSc1cccc[n+]1[O-])Nc1ccccc1C(F)(F)F` is greater than 49.2 µg/mL; for `Cc1nnc(SCc2nnc(-c3cccs3)o2)n1C` it is greater than 44 µg/mL. The same measure for `CCOC(=O)c1c(C)n(C)c2cc([N+](=O)[O-])c(O)c([N+](=O)[O-])c12`: 44.9 µg/mL (≈ 139 µM); for `O=C(CNS(=O)(=O)c1ccc(F)cc1)N1CCOCC1`: greater than 45.3 µg/mL; for `Cc1ccc(O)c(CNc2cccc(C)n2)c1`: 22.5 µg/mL (≈ 98.6 µM).

Compound `Fc1ccc(C2Nc3cccc4cccc(c34)N2)cc1` returned a solubility (kinetic) of 3.2 µg/mL (≈ 12.1 µM). `COc1cc(OC)nc(NC(=O)NS(=O)(=O)c2ccccc2Cl)n1` yielded a kinetic solubility of 45 µg/mL (≈ 121 µM). `Cc1ccc(SCCOCCN2CCOCC2)cc1.Cl` returned a kinetic solubility greater than 47.7 µg/mL. The figure for `O=C(NCCc1nnc2ccccn12)c1cccs1` is greater than 40.8 µg/mL; for `COC(=O)/C=C1\NCCNC1=O` it is greater than 25.5 µg/mL. As to `Cc1ccc(C(=O)Nc2ccc3c(c2)OCO3)cc1Cl`, the kinetic solubility is less than 0.6 µg/mL. Turning to `Cc1nc2ccc([N+](=O)[O-])cc2nc1C`, the kinetic solubility was greater than 30.5 µg/mL. For the compound `COc1ccc(CCNS(=O)(=O)c2ccc(Cl)cc2)cc1OC`, the solubility (kinetic) was greater than 53.4 µg/mL.

As for `S=c1nc(Cc2ccccc2)[nH]c2ccccc12`, the solubility (kinetic) was determined as 2.4 µg/mL (≈ 9.51 µM).

For the compound `O=C(NCc1cccnc1)c1cccs1`, the kinetic solubility is greater than 32.7 µg/mL. The figure for `O=C(COC(=O)COc1ccccc1F)Nc1ccc2c(c1)OCO2` is greater than 52.1 µg/mL; for `Nc1ccc(S(=O)(=O)Nc2nc3ccccc3o2)cc1` it is greater than 43.4 µg/mL; for `S=c1[nH]cc(-c2ccc(Cl)cc2)n1Cc1ccccc1` it is less than 0.3 µg/mL. The same measure for `O=c1cc(C(F)(F)F)nc(SC/C=C/c2ccccc2)[nH]1`: greater than 46.8 µg/mL; for `CCC(Cc1ccccc1)NC(=O)C1CC1` (configuration not stated): greater than 32.6 µg/mL; for `CCOc1cc(/C=C(\C#N)C(=O)Nc2ccccn2)ccc1O`: greater than 46.4 µg/mL. The same measure for `CCN(CC)c1ccc2c(Nc3ccccc3)c(C=O)c(=O)oc2c1`: less than 0.4 µg/mL.

Compound `O=C(CN1CCCC1)Nc1c(Cl)cccc1Cl` returned a kinetic solubility of 36.9 µg/mL (≈ 135 µM). The figure for `COc1ccc(NC(=O)Cn2cnc3ccccc3c2=O)cc1OC` is 12.6 µg/mL (≈ 37.1 µM).

As to `CC(C)(C)NC(=O)C1CC(=O)N(CCc2ccc(F)cc2)C1` (configuration not stated), the solubility (kinetic) is greater than 46 µg/mL. The same measure for `Cl.NCCSC1CC(=O)N(c2ccc(F)cc2)C1=O` (configuration not stated): 29.5 µg/mL; for `CC1CC(C)CN(C(=O)Nc2ccccc2F)C1` (configuration not stated): 15 µg/mL (≈ 59.9 µM); for `Cc1cc(NC(=O)COc2ccccc2C#N)no1`: 11.2 µg/mL (≈ 43.5 µM). The same measure for `Cc1cccc(-c2noc(CNC(=O)c3ccco3)n2)c1`: 42.5 µg/mL (≈ 150 µM); for `COc1ccc(N2CCN(C(=O)Cn3cncn3)CC2)cc1`: greater than 45.2 µg/mL. The figure for `CSc1ncccc1C(=O)OCC(=O)c1ccccc1` is 1 µg/mL (≈ 3.48 µM); for `O=C(CN1C(=O)NC2(CCc3ccccc32)C1=O)NCc1ccc(Cl)cc1` (configuration not stated) it is greater than 57.6 µg/mL; for `O=S(=O)(c1ccc(Cl)cc1)N1CCCCC1c1cccnc1` (configuration not stated) it is 47.7 µg/mL (≈ 142 µM). Consider `Nc1nonc1C(=O)NCCNc1ccc([N+](=O)[O-])cc1`, for which the solubility (kinetic) came to 3.8 µg/mL (≈ 13 µM). The figure for `CCCN1C2CCCC1CC(NC(=S)Nc1cccc(C)c1)C2` (configuration not stated) is greater than 49.7 µg/mL. Compound `CSc1ncccc1C(=O)OCC(=O)Nc1ccc(Cl)cn1` returned a kinetic solubility of 3.6 µg/mL (≈ 10.7 µM). As to `Cc1ccccc1CC(=O)N1CCN(C(=O)C2CCCO2)CC1` (configuration not stated), the solubility (kinetic) is greater than 47.5 µg/mL. The same measure for `Cn1ccc(C(=O)Nc2ccc3c(c2)OCCO3)n1`: greater than 38.9 µg/mL; for `O=C(Nc1ccc(F)c([N+](=O)[O-])c1)C1CCCO1` (configuration not stated): greater than 38.1 µg/mL; for `CC1(C(=O)OCC(=O)Nc2ccc(S(=O)(=O)N3CCOCC3)cc2)CC1(Cl)Cl` (configuration not stated): 60.5 µg/mL (≈ 134 µM). `Cc1cccc(N2CCN(C(=O)c3ccccn3)CC2C)c1` (configuration not stated) came in with a kinetic solubility greater than 44.3 µg/mL. The figure for `C=CCNC(=O)CSCc1ccc(Br)cc1` is greater than 45 µg/mL; for `O=C(CCn1c(=S)oc2ccccc21)NC1CCCCC1` it is 1.6 µg/mL (≈ 5.26 µM); for `O/N=C1\CCCc2c1nc(-c1ccccc1F)n2O` it is greater than 39.2 µg/mL. `Cc1cc(C(=O)O/N=C(\N)c2ccncc2)ccc1[N+](=O)[O-]`: the solubility (kinetic) is 25.1 µg/mL (≈ 83.6 µM).

As for `COc1ccc(Cl)cc1S(=O)(=O)NCCCn1ccnc1`, the kinetic solubility was 48.6 µg/mL (≈ 147 µM). The figure for `Cc1cccc(Nc2nc(Cl)ncc2F)c1C` is 5.3 µg/mL (≈ 21.1 µM); for `CC1CN=C(NCCc2ccccc2)S1` (configuration not stated) it is greater than 33 µg/mL. The figure for `OCCCC1CCCCN1Cc1nc(Cc2ccccc2Cl)no1` (configuration not stated) is 43.4 µg/mL (≈ 124 µM); for `O=C(CSc1cccs1)Nc1ccc(Cl)cc1` it is 36.5 µg/mL (≈ 129 µM). On to `CN(C)CCNC(=O)c1ccc2c(c1)NC(=O)c1ccccc1S2`, for which the solubility (kinetic) was greater than 51.2 µg/mL. The figure for `O=C(NCc1ccccn1)C(=O)Nc1cccc2ccccc12` is 35.4 µg/mL (≈ 116 µM); for `O=C(NCc1ccccc1)c1ccc(NC(=O)c2ccco2)cc1` it is 2 µg/mL (≈ 6.24 µM). The same measure for `NC(=O)CSc1nc2cc(S(=O)(=O)N3CCOCC3)ccc2o1`: greater than 53.6 µg/mL; for `CCc1ccc(NC(=O)C(=O)NCC2CCCO2)cc1` (configuration not stated): 18.5 µg/mL (≈ 66.9 µM); for `Cn1c(O)c(/C=N/NC(=O)c2ccncc2)c(=O)[nH]c1=S`: greater than 45.8 µg/mL. For `CN(C)c1cccc(C(=O)NCCCn2ccc3ccccc32)c1`, the solubility (kinetic) turned out to be 23 µg/mL (≈ 71.6 µM). The same measure for `COc1cccc(C(=O)NCCCNC(=O)c2ccccn2)c1`: 43.3 µg/mL (≈ 138 µM); for `O=C(COc1ccc2ccccc2c1)Nc1ccncc1`: 6.1 µg/mL (≈ 21.9 µM). For `CC(Sc1nnc(-c2ccco2)n1C)C(=O)NC1CCCC1` (configuration not stated), the kinetic solubility was greater than 48.1 µg/mL.
